# Data reported in patent US11692011B2, “Hepatitis B virus-derived polypeptide and anti-viral use thereof” (priority 2018, dated 2023).
# No end group written: not given here.
# Columns and labels:
# [1] = system: HIV-1; conditions: HIV-1-infected MT-4 cells, 5 days, dose-dependent manner
# Description: In detail, MT-4 cells were prepared at a density of 1×10^4 cells, and incubated with varying concentrations of Poly6 for 5 days. Cytotoxicity was determined using an MTT assay kit (Promega). To analyze the anti-cytotoxic effect of Poly6 from cell death caused by cytotoxicity due to HIV-infection, MT-4 cells (1×10^4 cells) were infected with HIV-1 (1×10^4 CCID50), incubated for five days, and then subjected to cell viability assays. In addition, to determine HIV-1 titers in the supernatant, p24 ELISA was performed. […] Similar to AZT, cytopathic inhibitory effects of Poly6 on HIV-1-infected MT-4 cells were analyzed.
# [2] = system: HBV; assay: Anti-HBV effect in HepG2.2.15 or pHBV-1.2x-WT transfected HepG2 cells (HBsAg/HBeAg ELISA, Q-PCR, Southern blot); format: cell-based; conditions: for e antigen / s antigen: treated for 48 hr
# Description: In this Experimental Example, HBV polymerase-derived peptides having anti-HBV effects were identified, and cell viability upon treatment thereof was analyzed. […] Then, quantitative PCR and ELISA were performed to examine virion replication and HBV surface antigen (HBsAg).
# Chronic HBV infection is known to cause severe liver diseases such as cirrhosis and hepatocellular carcinoma, unlike acute infection. Therefore, it is important to develop anti-HBV drugs that overcome chronic infections. However, since the HBV genome is integrated into the host chromosome, the complete removal of the virus from human liver and serum remains a difficult problem. Therefore, in this Experimental Example, to evaluate the anti-viral effect of Poly6, HepG2.2.15 permanent cell line that continuously expresses HBV was treated with Poly6. Further, HepG2 cells were seeded in a 6-well plate, and then transiently transfected with pHBV-1.2×-WT. […] To measure secreted HBsAg and HBeAg in culture supernatants, HBsAg (BIOKIT) and HBeAg (AccuDiag) ELISA were performed according to experimental methods provided. For detection of 8-hydroxy-2′-deoxyguanosine (8-OHdG) activity, an 8-OHdG assay kit (OxiSelect Oxidative DNA Damage ELISA kit, Cell Biolabs) and ELISA were performed according to the manufacturer's protocol.
# To measure extracellular virion secretion, Southern blot analysis was performed. In detail, before ultra-centrifugation at 4° C. and 24,000 rpm for 3 hr, cell debris was removed, and virions were precipitated from the supernatant using 8% PEG6000 (Sigma) on ice for 1 hr. Pellets were harvested with PBS, and HBV DNA was collected using a QIAamp DNA mini kit (QIAGEN) according to the manufacturers instructions. Viral DNA was measured using quantitative real-time PCR (Q-PCR). PCR amplification was performed using a QPCR primer set targeting a small surface gene, which is designed to amplify an a101-bp product (Table 2). Q-PCR was performed using a commercial SensiFAST SYBR Lo-ROX kit (BIOLINE) and an HBV Genesig standard kit (Primer design) to calibrate a viral load. In addition, to detect extracellular HBV DNA, supernatants were collected and HBV particles were precipitated using […] (Sigma) as described above. Virus pellets were collected from PBS and DNA was extracted with a lysis buffer (0.25% SDS, 250 mM Tris-HCl, pH 7.4 and 250 mM EDTA). Purified HBV DNA was separated on a 1% agarose gel, transferred to a nylon membrane (Hybond N+; Amersham) by Southern blotting, and hybridized with a 32P-labeled wild-type, full length HBV DNA probe. Analysis was performed using a random primer DNA labeling kit (TaKaRa). Autoradiography was performed and analyzed using a BAS 2500 image analyzer (Fuji Photo Film).
# [3] = system: HIV-1; conditions: 10 μM, 2 days, HIV-1-infected MT-4 cells
# Description: To evaluate anti-HIV-1 effects of the three polypeptides, cell-based anti-viral effects were analyzed. MT-4 cells (4×10^5 cells) were infected with HIV-1 (4×10^5 CCID50) for 1 hour. The MT-4 cells were obtained from NIH/AIDS Research and Reference Reagent Program. 293FT cells were transfected for 48 hr with HIV-1 using a pBR_HIV-1_M_NL4-3_IRES_eGFP vector (DS441) which co-expresses Nef and enhanced green fluorescence protein (eGFP) from a single bicistronic RNA, and Lipofectamine 2000 reagent (Life Technologies). A supernatant containing a viral precursor HIV-1 was harvested, and the viral titer was determined using p24 ELISA (ABL). For amplification of infectious HIV-1, MT-4 cells were infected with the viral precursor HIV-1 at a multiplicity of infection (MOI) of 0.5 for 72 hr. […]
# In this regard, DMSO and AZT were purchased from Sigma-Aldrich. After 2 days of incubation, GFP images were obtained using a fluorescence microscope. The relative GFP intensity was determined using an ImageJ software program (National Institutes of Health) in pixels per area. […] Cell viability against the treated reagents was assessed by an MTT assay.
# In detail, MT-4 cells were prepared at a density of 1×10^4 cells, and incubated with varying concentrations of Poly6 for 5 days. Cytotoxicity was determined using an MTT assay kit (Promega). […]
# [4] = system: mitochondrial reactive oxygen species (mtROS); assay: Mitochondrial reactive oxygen species (MitoSox, flow cytometry) in HepG2 cells; format: cell-based, human; conditions: for production of reactive oxygen species (mtROS) by mitochondrial stress: HepG2 cells, 2 hr to 24 hr, compared with PBS, rotenone 0.5 μM
# Description: After culturing the cells for an appropriate time, the cells were incubated with 5 μM of MitoSox (Molecular probes) at 37° C. for 30 min. For flow cytometry, cell pellets were re-suspended in FACS buffer (1% FBS and 1 mM EDTA in PBS) and fixed with 4% paraformaldehyde. To prevent mitochondrial dysfunction, 10 μM of MitoTempo (SigmaAldrich) was pretreated for 12 hr, and 0.5 μM of rotenone (SigmaAldrich) reagent was used as a positive control for ROS induction through mitochondrial stress.
# [5] = system: IFN-I; assay: IFN-I related mRNA levels in HepG2-2.15 cells; format: cell-based, human; conditions: compared with PBS group
# From the text: IFN-I is induced by host cells to regulate viral infection (Stetson & Medzhitov, 2006). Therefore, to examine the effect of Poly6 on IFN-I production in HepG2-2.15 cells and mouse liver, mRNA levels of IFN-β, RIG-I, and ISG15 were examined.
# In addition, to measure IFN levels by indirectly using a luciferase reporter gene for IFN-I bioassay and neutralization analysis, hMH55-293-ISRE cells was used, into which interferon sensitive response element (ISRE) associated with the luciferase reporter gene was inserted at the 3′-end using 5 μg of puromycin (Sigma Aldrich). After collecting supernatants from cells treated with each reagent for 24 hr or 48 hr, the supernatants were added to hMH55-293-ISRE cells for 6 hr. After incubation, cells were washed with PBS, and lysed with a reporter lysis buffer (E1500, Promega) at room temperature for 30 min. A luciferase assay reagent (E1500, Promega) was added and luminescence was measured using a TECAN m200 reader (TECAN).
# (§1) Through the combination treatment of entecavir, which is currently used as an HBV anti-viral agent having a mechanism whereby activity of HBV polymerase in the nucleus is inhibited and converted to a phosphorylated form, and Poly6, which was confirmed to increase IFN-I, its anti-HBV effect and synergistic effect of IFN-I increase were examined. HepG2-2.15 cells were incubated at a density of 5×10^5 cells/well on a 6-well culture plate for 24 hr, and treated with PBS, ETV, or Poly6 alone or in combination of two substances. After incubating the cells for 48 hr, supernatants were collected, and subjected to ELISA, qPCR, and LDH assay.
# Meanwhile, to examine a synergistic effect of the combination treatment of two substances with respect to the increase level of IFN-I, mRNAs of single treatment groups and combination treatment groups were extracted, and IFN-α, IFN-β, and TNF-α expression levels were observed. […] In addition, IFN levels were indirectly measured using a luciferase reporter gene of hMH55-293-ISRE cell.
# [6] = system: HBV; assay: Combination treatment of entecavir and Poly6 in HepG2-2.15 cells (ELISA, qPCR); format: cell-based; conditions: HepG2-2.15, 48 hr
# Description: as §1
# [7] = system: HepG2-hNTCP-C4 cells; conditions: up to 10 μM
# Description: (§2) In detail, HepG2, HepG2.2.15, and HepG2-hNTCP-C4 cells (expressing NTCP receptors on the cell membrane) were plated in a 96 microplate (1×10^4 cells/well), and incubated for 5 days with increasing concentrations of ETV (30 nM) and Poly6. For an MTS assay, a cell-titer 96 aqueous one solution was directly added to each well, and the plate was incubated for 3 hr. The plate was read at 490 nm, and each analysis was repeated in triplicate.
# [8] = system: MT-4 cells; assay: Cytotoxicity assay (MTT) in MT-4 cells; conditions: up to 25 μM, 5 days
# Description: Cell viability against the treated reagents was assessed by an MTT assay.
# In detail, MT-4 cells were prepared at a density of 1×10^4 cells, and incubated with varying concentrations of Poly6 for 5 days. Cytotoxicity was determined using an MTT assay kit (Promega).
# [9] = system: HepG2 cells; assay: Cell viability (MTS assay), HepG2; format: cell-based, human; conditions: up to 10 μM
# Description: as §2
# [10] = system: HepG2.2.15 cells; conditions: up to 10 μM
# Description: as §2
# [11] = compared with PBS (combination vs each single treatment)
compound,measurement,setting,value
"Cc1cn([C@H]2C[C@H](N=[N+]=[N-])[C@@H](CO)O2)c(=O)[nH]c1=O [AZT, 3-azido-3-deoxythymidine]",cell protective effect (cytopathic inhibitory effect),[1],significant cell protective effect
GRLVF (Hepatitis B virus) [Poly5],e antigen,[2],reduced
same,s antigen,[2],reduced
same,virus production (HIV-1 titers by GFP imaging and p24 ELISA),[3],reduced
CC1(C)CC(NC(=O)C[P+](c2ccccc2)(c2ccccc2)c2ccccc2)CC(C)(C)N1[O] [MitoTEMPO],"mitochondrial reactive oxygen species increased by rotenone and Poly6, after antioxidant treatment",[4]; MitoTempo 10 μM pretreated 12 hr,reduced again
C=C(C)[C@H]1Cc2c(ccc3c2O[C@@H]2COc4cc(OC)c(OC)cc4[C@@H]2C3=O)O1 [rotenone],production of reactive oxygen species (mtROS) by mitochondrial stress,[4],significantly increased
"C=C1[C@H](CO)[C@@H](O)C[C@@H]1n1cnc2c(=O)[nH]c(N)nc21 [ETV, entecavir]",viral replication levels (viral titers),"[2]; ETV 30 nM, Poly6 10 μM, 2 days","reduced by ETV, but there was no statistical significance"
same,extracellular virion secretion (Southern blot),[2]; compared with PBS,clearly decreased
same,mRNA level of IFN-β,[5],no statistical significance
same,mRNA level of ISG15,[5],no statistical significance
same,mRNA level of RIG-I,[5],no statistical significance
same,extracellular HBV DNA levels,[6]; compared with PBS (combination also vs single treatment),statistically significantly reduced
same,level of extracellular e antigen,[6]; [11],no significant reduction effect
same,level of extracellular s antigen,[6]; [11],no significant reduction effect
same,production of reactive oxygen species (mtROS) by mitochondrial stress,[4],not observed
"GRLVFQ [Poly6, GRLVFQ]","cytotoxic activity / cell viability, HepG2-hNTCP-C4",[7],did not exert significant cytotoxic activity
same,cytotoxic activity against MT-4 cells (MTT),[8],did not exert significant cytotoxic activity
same,"cytotoxic activity / cell viability, HepG2",[9],did not exert significant cytotoxic activity
same,"cytotoxic activity / cell viability, HepG2.2.15",[10],did not exert significant cytotoxic activity
GRLVFQT (Hepatitis B virus) [Poly7],e antigen,[2],reduced
same,s antigen,[2],reduced
same,virus production (HIV-1 titers by GFP imaging and p24 ELISA),[3],reduced
